Laboratory results published in patent US6884808B2, “Heterocycle-containing carboxylic acid derivative and drug containing the same” (Eisai Co. Ltd., priority 1995, dated 2005).

Assays:
[1] = biological target: T1, Retinoic acid receptor: RAR (Homo sapiens, UniProt P10276); assay: Receptor binding assay by using human promyelocytic leukemia cells HL60 (nucleus-extracted fraction, 3H-all-trans retinoic acid); conditions: 50% inhibition concentration of 3H-all-trans retinoic acid binding, 4° C. for 16 hours
T1 construct: using a fraction extracted from the nucleus of HL60; endogenous in cells; host or cells: HL60 cells, nucleus-extracted fraction (0.4 M KCl extract, 100,000 x g supernatant)
T1 sequence (P10276 1-462): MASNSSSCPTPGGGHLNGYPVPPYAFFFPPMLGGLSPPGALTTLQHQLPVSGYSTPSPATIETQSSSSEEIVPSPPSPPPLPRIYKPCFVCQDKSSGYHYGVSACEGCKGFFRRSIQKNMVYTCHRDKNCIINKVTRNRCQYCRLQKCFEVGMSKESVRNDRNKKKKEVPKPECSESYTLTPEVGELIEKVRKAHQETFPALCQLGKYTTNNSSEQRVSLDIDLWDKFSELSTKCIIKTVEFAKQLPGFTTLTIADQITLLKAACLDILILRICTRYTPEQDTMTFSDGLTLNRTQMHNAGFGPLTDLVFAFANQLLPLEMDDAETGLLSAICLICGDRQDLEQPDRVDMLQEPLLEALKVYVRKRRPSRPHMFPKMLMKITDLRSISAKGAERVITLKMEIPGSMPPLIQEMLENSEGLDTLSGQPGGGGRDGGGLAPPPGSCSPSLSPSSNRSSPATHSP
Description: Receptor binding assay by using human promyelocytic leukemia cells HL60
The nucleus-extracted fraction was prepared as described below.
In 15 ml of Solution A [5 mM sodium phosphate (pH 7.4), 10 mM monothioglycerol, 10% v/v glycerol, 1 mM phenylmethyl sulfonyl fluoride (PMSF), 10 μg/ml of aprotinin and 25 μg/ml of leupeptin], HL60 cells (5×10^8) were suspended. The resulting suspension was homogenized, followed by centrifugal separation to remove the supernatant. The precipitate so obtained was suspended in 15 ml of Solution B [10 mM tris-HCl (Tris-HCl) (pH 8.5), 10 mM monothioglycerol, 10% (v/v) glycerol, 1 mM PMSF, 10 μg/ml aprotinin, 25 μg/ml leupeptin and 0.4 M KC1]. After being allowed to stand at 4° C. for one hour, the resulting suspension was subjected to ultracentrifugation at 100,000 xg and 4° C. for one hour.
Receptor binding assay was carried out as follows:
The resulting mixture was allowed to stand at 4° C. for 16 hours. […] The count of the supernatant was determined by a scintillation counter.

HL60 cells = assay: Differentiation and induction effects on HL60 cells (CD11b positive cells, flow cytometry); type: cell-based; conditions: Homo sapiens, HL-60, 120 h; concentration at which the existing ratio of CD11b positive cells becomes 33%; cultivation for 5 days; read-out: Differentiation and induction effects of HL60 cells ED1/3
Source text: Differentiation and Induction Effects on HL60 Cells
It is known that human-derived promyelocytic leukemia cell strains HL60 differentiate into the corresponding granulocytic cells in the presence of all-trans retinoic acid [Breitman, T. Selonick., S. and Colling, S. Proc. Natl. Acad. Sci., 77, 2936(1980)]. In general, cells after differentiation have come to express specific differentiated antigens on their surface. When the HL60 cells are differentiated into granulocytic cells, CD11b which is a differential antigen between granulocytes and monocytes is expressed on the surface of the cells [Fontana, J A., Reppuci, A. Durham, J P. and Mirand, D. Cancer Res. 46, 2469-2473(1986)]. Effects of the invention compound on the differentiation and induction into granulocyte cells were studied by making use of the above-described phenomenon.
HL60 cells were cultured and kept in RPMI 1640 (a medium formulated by Rosewell Park Memorial Institute) to which 10% bovine fetal serum, 1 mM sodium […], 50 μM β-mercaptoethanol, 100 IU/ml of penicillin and 100 μg/ml of streptomycin had been added.
On each well of a 24-well plate, a 1 ml portion of the suspension containing HL60 in an amount of 1×10^5 […] was seeded. The invention compound was then added thereto at varied concentrations, followed by cultivation for 5 days in a 5% CO2-air incubator. After cultivation, the cells of each well were collected in a test tube, to which an FITC-labeled monoclonal antibody against Cd11b, that is, a granulocyte-monocyte specific antigen was added. The cells were then immobilized with 0.2% paraformaldehyde. The existing ratio of CD11b positive cells in the vial HL60 cell group present in each well was determined using flow cytometry [Miller, L J., Schwarting, R. and Springer, T A. J. Immunol. 137, 2891-2900(1986)]. The existing ratios of CD11b positive cells-of-compounds which will be described below were increased according to the concentration. The concentration at which the existing ratio of the positive cells becomes 33% is defined as ED1/3.

Row | SMILES | melting point | IC50 [1] [nM] | EC (33% CD11b positive cells) (HL60 cells) [µM]
1 | CC1(C)CC(C)(C)c2nc(-c3ccc(-c4ccc(C(=O)O)cc4)[nH]3)cnc21 [Compound of Ex. 43, 4-[2-[5-[2-(5,5,7,7-Tetramethylcyclopenta[b]pyrazinyl)]-pyrrolyl]]benzoic acid] | 269 °C (dec.) | 36 | 0.00036
2 | CC(C)c1cc(-c2ccc(-c3ccc(C(=O)O)cc3)[nH]2)nn1C(C)(C)C [Compound of Ex. 99, 4-{2-{5-[3-(1-tert-Butyl-5-isopropylpyrazolyl)]pyrrolyl}}benzoic acid] | – | 3.4 | 4.7e-05
3 | CN1CCCC(C)(C)c2cc(-c3ccc(-c4ccc(C(=O)O)cc4)[nH]3)ccc21 [Compound of Ex. 85, 4-{2-{5-[7-(1,5,5-Trimethyl-2,3,4,5-tetrahydro-1H-benzazepinyl)]pyrrolyl}}benzoic acid] | – | < 0.5 | 0.001
4 | CC(C)c1ncc(-c2ccc(-c3ccc(C(=O)O)cc3)[nH]2)nc1C(C)C [Compound of Ex. 42, 4-[2-[5-[2-(5,6-Diisopropylpyrazinyl)]pyrrolyl]]benzoic acid] | 246 °C (dec.) | 2 | 0.00033
5 | CC1(C)CCC(C)(C)c2nc(-c3ccc(-c4ccc(C(=O)O)cc4)[nH]3)cnc21 [Compound of Ex. 6, 4-[2-[5-[2-(5,6,7,8-Tetrahydro-5,5,8,8-tetramethylquinoxalyl)]pyrrolyl]]benzoic acid] | – | 1.6 | 5.6e-05
6 | CC1(C)CCC(C)(C)c2cc(-c3ccc(-c4ccc(C(=O)O)cc4)[nH]3)ccc21 [1), reference compound] | – | 0.5 | 0.00094
